Measurements as given in patent US20240024385A1, “PROBIOTIC STRAIN FOR REDUCING SERUM URIC ACID, COMPOSITION AND USE THEREOF” (Ningbo Beiyijia Biotechnology Co., Ltd., priority 2022, published 2024).

Experiments:
[1] = 20° C.; cited from earlier work
serum uric acid = test: Combined use of composition 6 with a uric acid-reducing drug, serum uric acid in hyperuricemia patients with tophi; type: in vivo, human; set-up: Serum uric acid: unit not given here; conditions: for Serum uric acid: hyperuricemia patients with tophi, febuxostat 20 mg/day or benzbromarone 25 mg/day; for Effect on increase of serum uric acid level caused by dissolution of urate crystals by composition 6: small dose combined with composition 6 (febuxostat 20 mg/day or benzbromarone 25 mg/day)
Excerpt: The process of dissolving urate crystals and tophi will result in a temporary increase of the serum uric acid level, which may lead to acute gout inflammation. In order to relieve the increase of the serum uric acid level caused by the dissolution of urate crystals or tophi, the effect of combined use of the composition 6 with a small-dose uric acid-reducing drug on the inhibition of the rise of the serum uric acid level was investigated.
Fifty hyperuricemia patients with tophi were recruited as volunteers, divided into 5 groups, and separately administered with the composition 6 and the uric acid-reducing drug (febuxostat 20 mg/day or benzbromarone 25 mg/day) alone or in combination. The change of serum uric acid during the intervention period was observed.

| Structure (SMILES) | Solubility in water [1] | Serum uric acid (serum uric acid; Day 0 (before intervention)) | Serum uric acid (serum uric acid; Day 30) | Serum uric acid (serum uric acid; Day 60) | Serum uric acid (serum uric acid; Day 90) | Effect on increase of serum uric acid level caused by dissolution of urate crystals by composition 6 (serum uric acid) |
| --- | --- | --- | --- | --- | --- | --- |
| Nc1nc2nc[nH]c2c(=O)[nH]1 [guanine] | 0.17 mg/100 mL | – | – | – | – | – |
| Nc1nc2c(ncn2[C@@H]2O[C@H](COP(=O)(O)O)[C@@H](O)[C@H]2O)c(=O)[nH]1 [guanosine monophosphate] | 20 g/100 mL | – | – | – | – | – |
| CCc1oc2ccccc2c1C(=O)c1cc(Br)c(O)c(Br)c1 [benzbromarone] | – | 640 ± 78 | 593 ± 71 | 463 ± 53 | 405 ± 37 | can inhibit the increase of the serum uric acid level |
| Cc1nc(-c2ccc(OCC(C)C)c(C#N)c2)sc1C(=O)O [febuxostat] | – | 631 ± 51 | 571 ± 52 | 478 ± 57 | 416 ± 59 | can inhibit the increase of the serum uric acid level |
| Nc1nc2c(ncn2[C@@H]2O[C@H](CO)[C@@H](O)[C@H]2O)c(=O)[nH]1 [guanosine] | 77.6 mg/100 mL | – | – | – | – | – |
